These results are taken from ChEMBL document CHEMBL3877246, “Antileishmanial effect of new indeno-1,5-naphthyridines, selective inhibitors of Leishmania infantum type IB DNA topoisomerase” (Eur J Med Chem, 2016).

The structures appear in SMILES notation. Activity calls are given as the source filed them. The calls are words filed in the database; no cut-off is given here.

In data set [1] the test system is Leishmania infantum. Put plainly: Antileishmanial activity against Leishmania infantum BCN150 promastigotes harboring iRFP gene by infrared imaging method. It counts as functional.
The nature of data set [2]: Inhibition of Leishmania infantum recombinant topoisomerase 1B expressed in topoisomerase 1B- deficient Saccharomyces cerevisiae EKY3 assessed as decrease in relaxation of negatively supercoiled pSK DNA preincubated for 15 mins followed by supercoiled pSK DNA addition measured after 5 mins by aggarose gel electrophoresis.
A short description of data set [3]: Cytotoxicity against BALB/c mouse splenocytes assessed as cell viability after 48 hrs by alamar blue assay. It counts as toxicity, Splenocyte. On the technique in general: Alamar Blue is a resazurin reagent that responds to reducing activity.
For data set [4], the species on record is Homo sapiens. In words: Inhibition of human recombinant topoisomerase 1B expressed in topoisomerase 1B- deficient Saccharomyces cerevisiae EKY3 assessed as decrease in relaxation of negatively supercoiled pSK DNA at 100 uM preincubated for 5 mins followed by supercoiled pSK DNA addition measured after 5 mins by aggarose gel electrophoresis.
Data set [5] relates to Leishmania infantum. In words: Inhibition of Leishmania infantum recombinant topoisomerase 1B expressed in topoisomerase 1B- deficient Saccharomyces cerevisiae EKY3 assessed as decrease in relaxation of negatively supercoiled pSK DNA at 100 uM preincubated for 15 mins followed by supercoiled pSK DNA addition measured after 5 mins by aggarose gel electrophoresis.
The species named for data set [6] is Homo sapiens. In words: Inhibition of human recombinant topoisomerase 1B expressed in topoisomerase 1B- deficient Saccharomyces cerevisiae EKY3 assessed as decrease in relaxation of negatively supercoiled pSK DNA at 100 uM preincubated for 15 mins followed by supercoiled pSK DNA addition measured after 5 mins by aggarose gel electrophoresis.
Data set [7] is described as follows: Inhibition of human recombinant topoisomerase 1B expressed in topoisomerase 1B- deficient Saccharomyces cerevisiae EKY3 assessed as decrease in relaxation of negatively supercoiled pSK DNA preincubated for 15 mins followed by supercoiled pSK DNA addition measured after 5 mins by aggarose gel electrophoresis.
For data set [8], the system named is Leishmania infantum. In words: Inhibition of Leishmania infantum recombinant topoisomerase 1B expressed in topoisomerase 1B- deficient Saccharomyces cerevisiae EKY3 assessed as decrease in relaxation of negatively supercoiled pSK DNA at 100 uM preincubated for 5 mins followed by supercoiled pSK DNA addition measured after 5 mins by aggarose gel electrophoresis.

The species named for data set [9] is Homo sapiens. Put plainly: Inhibition of human recombinant topoisomerase 1B expressed in topoisomerase 1B- deficient Saccharomyces cerevisiae EKY3 assessed as decrease in relaxation of negatively supercoiled pSK DNA at 100 uM preincubated for 1 min followed by supercoiled pSK DNA addition measured after 5 mins by aggarose gel electrophoresis.
In data set [10] the test system is Leishmania infantum. In words: Antileishmanial activity against Leishmania infantum amastigotes harboring iRFP gene infected BALB/c mouse splenocytes after 48 hrs by infrared imaging method. It counts as functional.
A short description of data set [11]: Selectivity index, ratio of CC50 for BALB/c mouse splenocytes to IC50 for Leishmania infantum amastigotes harboring iRFP gene infected BALB/c mouse splenocytes. It counts as functional.
The test system of data set [12] is Leishmania infantum. Put plainly: Inhibition of Leishmania infantum recombinant topoisomerase 1B expressed in topoisomerase 1B- deficient Saccharomyces cerevisiae EKY3 assessed as decrease in relaxation of negatively supercoiled pSK DNA at 100 uM preincubated for 1 min followed by supercoiled pSK DNA addition measured after 5 mins by aggarose gel electrophoresis.

For orientation: IC50 means the concentration needed to halve the response being measured. Broadly, the CC50 is the concentration at which the toxic effect on the cells reaches its halfway point. `FC(F)(F)c1ccc([C@H]2Nc3cccnc3[C@H]3c4ccccc4C[C@H]32)cc1` (relative stereo): the IC50 worked out at 6.1 µM in data set [1], 60.6 µM in data set [2] and 22.4 µM in [7]. The CC50 at 48 h in data set [3] is 4.6 µM. Further, the inhibition entry in data set [4], in data set [5], in [6] and in data set [8] was “Active” throughout.

With `Fc1ccc([C@H]2Nc3cccnc3[C@H]3c4ccccc4C[C@H]32)cc1F` (relative stereo), the values for the IC50 in data set [1], in data set [7] and in data set [10] were 86.8 µM, 24.4 µM and 76.2 µM, respectively. Also, the CC50 at 48 h in data set [3] was determined as 77.5 µM. Also, the inhibition entry in data set [4] and in data set [9] was “Active” in each case. The “Ratio CC50/IC50” value in data set [11] was found to be 1.02.

In the case of `COc1cccc(-c2nc3cccnc3c3c2Cc2ccccc2-3)c1`, the IC50 is greater than 100 µM in data set [1], 29.5 µM in data set [2] and 93.3 µM in data set [10]. Further, the CC50 at 48 h in data set [3] was greater than 100 µM. Also, the inhibition result in [5], in [12] and in data set [8] was “Active” each time. For the same molecule, the “Ratio CC50/IC50” value in [11] is listed as greater than 1.07.

As to `c1ccc2c(c1)Cc1c(-c3ccc4ccccc4c3)nc3cccnc3c1-2`, the IC50 in [1] was found to be 34.6 µM; in [2], 28.1 µM; in data set [7] it was 83.4 µM; in data set [10], 11.9 µM. In addition, in data set [3], the CC50 at 48 h turned out to be 75.8 µM. Moreover, the inhibition entry in data set [4], in data set [5], in [6], in data set [9], in [12] and in data set [8] was “Active” in each case. Further, in data set [11], the “Ratio CC50/IC50” value was 6.4.

On to `FC(F)(F)c1ccc(-c2nc3cccnc3c3c2Cc2ccccc2-3)cc1`, for which the IC50 in [1] came out at 84.7 µM; in [2], 23.6 µM; in data set [7], 27.4 µM; in [10] it was 3.35 µM. Also, in [3], the CC50 at 48 h worked out at 126 µM. For the same molecule, the inhibition entry in data set [4], in data set [5], in [6], in [9], in [12] and in [8] was “Active” in each case. In addition, the “Ratio CC50/IC50” value in data set [11] was 37.6.

Take `O=[N+]([O-])c1ccc(-c2nc3cccnc3c3c2Cc2ccccc2-3)cc1`: the IC50 in data set [1] is greater than 100 µM; in [2] it was 42.3 µM; in [7] it was 31.6 µM; in data set [10] it was 68.3 µM. Moreover, in data set [3], the CC50 at 48 h amounted to 88.1 µM. The inhibition result in data set [4], in data set [5], in [6], in data set [9], in data set [12] and in data set [8] was “Active” throughout. For the same molecule, the “Ratio CC50/IC50” value in data set [11] is 1.29.

Take `O=[N+]([O-])c1ccc([C@H]2Nc3cccnc3[C@H]3c4ccccc4C[C@H]32)cc1` (relative stereo): the IC50 in [1] was greater than 100 µM; in data set [2] it was greater than 100 µM; in [7], 10.7 µM; in data set [10], 91.3 µM. Besides, the CC50 at 48 h in data set [3] is greater than 100 µM. Besides, the inhibition result in [4], in [5], in data set [9] and in [8] was “Active” throughout. In addition, the “Ratio CC50/IC50” value in data set [11] is greater than 1.09.

For the molecule `Fc1ccc(-c2nc3cccnc3c3c2Cc2ccccc2-3)cc1`, the IC50 turned out to be 34.9 µM in data set [1], 14.7 µM in [2], 87.7 µM in data set [7] and 0.74 µM in data set [10]. Also, the CC50 at 48 h in [3] is 50.5 µM. The inhibition result in [4], in data set [5], in [9], in data set [12] and in data set [8] was “Active” in each case. For the same molecule, the “Ratio CC50/IC50” value in [11] came to 68.2.

Take `COc1ccc(-c2nc3cccnc3c3c2Cc2ccccc2-3)cc1`: the IC50 in [2] is 14.1 µM; in [10], 5.8 µM. Further, the CC50 at 48 h in [3] is 116 µM. In addition, the inhibition result in [5], in [12] and in data set [8] was “Active” in each case. Also, the “Ratio CC50/IC50” value in data set [11] is listed as 20.1.

For `COc1cccc([C@H]2Nc3cccnc3[C@H]3c4ccccc4C[C@H]32)c1` (relative stereo), the figures for the IC50 in data set [1], in data set [2] and in [10] were 5.4 µM, 21.8 µM and 0.54 µM, respectively. Besides, in data set [3], the CC50 at 48 h came to 35.8 µM. The inhibition entry in [12] and in data set [8] was “Active” in each case. The “Ratio CC50/IC50” value in data set [11] came to 66.3.

As to `c1ccc([C@H]2Nc3cccnc3[C@H]3c4ccccc4C[C@H]32)cc1`, the IC50 in data set [1] was greater than 100 µM; in data set [2], 45.2 µM; in [7], 46.5 µM; in [10] it was 65.1 µM. The CC50 at 48 h in data set [3] was 94.3 µM. Besides, the inhibition entry in data set [4], in data set [5], in data set [9] and in data set [8] was “Active” throughout. Moreover, the “Ratio CC50/IC50” value in data set [11] is recorded as 1.45.

As for `CC[C@@]1(O)C(=O)OCc2c1cc1n(c2=O)Cc2cc3ccccc3nc2-1` [CAMPTOTHECIN], the IC50 in [1] came to 1.12 µM; in data set [10], 0.03 µM. Besides, in [3], the CC50 at 48 h was 0.62 µM. In addition, the inhibition entry in data set [9] and in data set [12] was “Active” in each case. Further, the “Ratio CC50/IC50” value in data set [11] was determined as 20.7.
